Results from patent US8048918B2, “Treatment of hyperproliferative diseases” (Vampex Limited, priority 2000, dated 2011).
“Also recorded” adds a separate entry of the source. Where no end group is shown, it is not given here.

What was measured:
[1] = test system: hyperproliferative psoriatic keratinocytes; assay: proliferation assay (Coulter cell counter) on hyperproliferative psoriatic keratinocytes; format: cell-based, human
Text: Biopsy samples are obtained from psoriatic patients. Skin from patients with chronic plaque psoriasis are obtained with informed consent. Ethical approval has been obtained previously from The South Sheffield Regional Ethics Committee. Biopsies are all be taken from the lower back in psoriasis patients aged 40 to 60.
Remove subcutaneous tissue and some of the dermis with scissors, dissect skin into 1×2 cm pieces with a scalpel. Rinse the tissue 2-5 times in PBSA. Float skin samples on 0.6% Trypsin in PBSA (pH 7.4) ON at 4° C. (or alternatively for 20-30 min at 37° C.)
The separation of the epidermis is carefully monitored. When the first detachment of the epidermis is visible at the cut edges of the skin sample place the pieces (dermis-side down) in 100 mm Petri dishes. Irrigate with 5 ml of complete culture medium (incl. serum). Peel off the epidermis with forceps and collect it in a 50 ml centrifuge tube containing 20 ml of complete culture medium (KGM). Separate the keratinocytes from the epidermal cells by gently pipetting and sieving through a nylon gauze of 100 μm mesh. Wash the isolated epidermal cells twice in KGM by centrifugation at 100 g for 10 min, and count the total number of cells.
Cells are seeded at 37° C. in KGM medium at a density of 2500 cells/cm^2 in a 25 cm^2 cell culture flask. The medium is replaced every 48 hours and cells are passaged when confluent.
Cell Seeding and Analysis: Purchased secondary cultures or primary cultures (from donor skin) are seeded at 3500 cells/cm^2 in K-SFM 25 cm^2 tissue culture flasks. The medium is changed (5 ml per flask) the day after seeding and every other day thereafter. At 70-80% confluence the cells are subcultured by seeding 3500 cells per well in 24 well cell culture plates, each well containing 500 μl of K-SFM. One well plate is seeded for each treatment. After allowing one day for settling the cells are switched to experimental medium (500 μl per well). Stock solutions of additions are as before. Experimental treatments are as follows:
The medium is replaced every other day. Cells are harvested by trypsinisation. 500 μl Trypsin/EDTA is added to each well to be harvested and then aspirated off. The well plates are incubated for 5-6 min at 37° C. 500 μl PBS is added to the wells and the cells are resuspended. The cell suspension is added to 20 ml Isoton solution in a Coulter counter “Accuvette” and the cells are counted. On each harvest, 3 wells of cells are counted for each treatment and 3 counts were made for each well.
Cell number is calculated as follows: Coulter Counter removes 500 μl of 20 ml sample ( 1/40). Multiply cell count by 40 to obtain cell number in cup, this equals the total number of cells in one well (approximately, as ˜10% taken out for viability test). […]

[2] = test system: hyperproliferative psoriatic keratinocytes; assay: differentiation assay (K1/K10 mRNA, Northern blot / RT-PCR) on hyperproliferative psoriatic keratinocytes; format: cell-based, human
Protocol: RNA extraction is carried out according to the manufacturers instructions using the RNeasy kit (QIAGEN). 20 μg of RNA for each treatment was separated on a 1.2% agarose (1.8% formaldehyde) gel and transferred onto a nylon membrane (Zeta probe GT membranes, BioRad) by capillary transfer. The RNA is fixed to the membrane by UV crosslinking. DNA probes for the differentiation markers K1 and K10(50 ng) are labelled with [α-^32P] dCTP using the Prime-It RmT Primer labeling kit (Stratagene) following the manufacturer's instructions. Unincorporated nucleotides are removed by elution through a Microspin G25 column (Pharmacia Biotech). The blots are wetted in 0.25M sodium phosphate (pH 7.2)/7% SDS for 30 minutes at 65° C. Fresh hybridisation solution is added along with the radiolabelled probe and the blot is hybridised overnight at 65° C.
The blot is washed for 2×5 minutes in 0.25M sodium phosphate (pH 7.2), 7% SDS and then for 2×5 minutes in 20 mM sodium phosphate (pH 7.2), 5% SDS at 65° C. The wash steps are repeated until a clear distinction can be made between the signal and non-specific background. The blot is exposed to x-ray film for 24 hours before developing.
Synthesis of mRNA for the K1 and K10 keratin (markers for commitment to terminal differentiation) is examined by quantitative reverse transcription PCR (RT-PCR). Synthesis of mRNA for Cyclin D (a marker for cell proliferation) is also assayed by RT-PCR. Standard protocol for RT-PCR is followed as recommended by the manufacturer of the PCR machine (PE 2400) using 1 μg RNA from each keratinocyte culture. Suitable primers for RT-PCR are designed based on the human sequences of K1 and K10 deposited in GenBank. Northern blots are also performed: cells are harvested, RNA extracted and 20 μg RNA loaded into each well of a formaldehyde/agarose gel. The RNA is blotted onto a nylon membrane by capillary transfer and expression of K1 mRNA is determined by Northern hybridisation with a radiolabelled DNA probe.
Next, hyperproliferative epidermal keratinocytes are obtained, isolated and cultured as described above in Example 3. Hyperproliferative psoriatic keratinocytes are cultured as described above in serum-free medium with or without the addition of […] human retinol binding protein. At confluence the cells are treated (see Table 3 below) for 96 hours with peptides to 6 μM (medium replaced after 48 hours). Treatments shown in the Table 3 are for duplicate T-25 flasks (2×7 ml for each treatment).
The final concentrations are: Ca^2+ 1.2 mM, RBP 0.6 μM, peptides 6 μM.
Expression of K1 and K10 markers is determined as described above in Example 4. […]
Synthesis of mRNA for markers of proliferation and differentiation is also examined by semi-quantitative reverse transcription PCR (RT-PCR). […]

[3] = test system: COS-1 cells; assay: proliferation assay of COS-1 cells (Coulter counter); format: cell-based; conditions: P142 1 mg/ml, peptides 6 μM; 24 and 48 hours after treatment; FIG. 7
Protocol: (§1) […] (COS1 and COS7) are purchased from the European Cell Culture Collection, thawed and propagated according to the instructions from the supplier; cells are cultured essentially in the same manner as for normal human keratinocytes (Example 3 above), except that cells are seeded at 20 000 cells/cm^2, with only one treatment with antibody P142, control immunoglobulin, peptide 589, peptide 592 or control peptide 24 hrs after seeding.
(§2) Proliferation is assayed by counting cells in a Coulter counter, as described above.

[4] = test system: COS-7 cells; assay: proliferation assay of COS-7 cells (Coulter counter); format: cell-based; conditions: P142 1 mg/ml, peptides 6 μM; 24 and 48 hours after treatment; FIG. 8
Protocol: as §1, §2

[5] = test system: human dermal fibroblast cells; assay: proliferation assay of human dermal fibroblast cells; format: cell-based; conditions: P142 1 mg/ml, peptides 6 μM; 24 hours and 4 days after treatment; FIG. 9
Protocol: Fibroblast cell culture is performed essentially as described for culture of hyperproliferative psoriatic keratinocytes (Example 3), except that following irrigation with complete culture medium, the dermal portion is incubated with 1 mg/ml of collagenase (Sigma) in 20 ml DMEM in a 50 ml centrifuge tube for 16 hours at 37° C. Then 20 ml DMEM containing 5% foetal calf serum and 1% antibiotic/antimycotic solution (Gibco) is added and the cells seeded at 37° C. in DMEM medium+additions at a density of 2500 cells/cm^2 in a 25 cm^2 cell culture flask. Medium is replaced every 48 hours and cells passaged when confluent.
Fibroblast cell culture and experiments are performed essentially as described for culture of hyperproliferative psoriatic keratinocytes (above), except that following irrigation with complete culture medium, the dermal portion is processed further. Reference is made to fibroblast culture protocols set out above.
Proliferation of cells is assayed by direct cell counting essentially as for determination of proliferation in keratinocyte cell cultures. RDH, ADH, RalDH inhibitors are found to reduce proliferation.

[6] = peptides 6 μM, Ca2+ 1.2 mM, RBP 0.6 μM

Molecule	keratinocyte proliferation on addition of retinol or retinoic acid ([1]; 1.2 mM Ca2+, 2 μM ROL, FIG. 10)	effect of RBP or ROL on differentiation ([2]; under differentiation pressure from 1.2 mM calcium)	proliferation of Cos-1 cells (cell numbers) [3]	proliferation of Cos-7 cells (cell numbers) [4]	fibroblast proliferation (cell numbers) [5]	effect on RBP-increased proliferation [1, 6]	differentiation (expression of K1 and K10 markers) [2, 6]
CC1=C(/C=C/C(C)=C/C=C/C(C)=C/CO)C(C)(C)CCC1 [retinol, (2E,4E,6E,8E)-3,7-dimethyl-9-(2,6,6-trimethylcyclohex-1-en-1-yl)nona-2,4,6,8-tetraen-1-ol, reference compound]	induced	inhibition of differentiation					
MKYWGVASFLQKGND [Peptide 592]			marked reduction in proliferation	marked reduction in proliferation	greater reduction in proliferation	reversed	reversed; also recorded: same effect
